{
  "source": "paper PMC4620497",
  "about": "(Scientific Reports, 2015)",
  "key": {"SMMC7721": {"test_system": "SMMC7721", "test": "MTT cell viability assay", "conditions": "Homo sapiens, SMMC-7721, 72 h"}, "U266": {"test_system": "U266", "test": "MTT cell viability assay", "conditions": "Homo sapiens, U-266, 72 h"}, "Karpas-299": {"test_system": "Karpas-299", "test": "MTT cell viability assay", "conditions": "Homo sapiens, KARPAS-299, 72 h"}, "MCF-7": {"test_system": "MCF-7", "test": "MTT cell viability assay", "conditions": "Homo sapiens, MCF7, 72 h"}, "HL-60": {"test_system": "HL-60", "test": "MTT cell viability assay", "conditions": "Homo sapiens, HL-60, 72 h"}, "Jurkat": {"test_system": "Jurkat", "test": "MTT cell viability assay", "conditions": "Homo sapiens, 72 h"}, "Raji": {"test_system": "Raji", "test": "MTT cell viability assay", "conditions": "Homo sapiens, 72 h"}, "HeLa": {"test_system": "HeLa", "test": "MTT cell viability assay", "conditions": "Homo sapiens, 72 h"}, "A549": {"test_system": "A549", "test": "MTT cell viability assay", "conditions": "Homo sapiens, A549, 72 h"}, "BEL7402": {"test_system": "BEL7402", "test": "MTT cell viability assay", "conditions": "Homo sapiens, Bel-7402, 72 h"}, "[1]": {"test_system": "Wnt/β-catenin signaling in STF3a cells", "test": "STF3a SuperTopFlash luciferase reporter assay", "assay_type": "cell-based", "conditions": "24 h", "procedure": "The cell line STF3a, which stably expresses both the STF (SuperTopFlash) luciferase reporter promoter and the wnt3a gene was used to determine whether SKLB-677 can block the Wnt/β-catenin signaling. […]. […] Here we can conclude that the SKLB-677-mediated blockade of Wnt/β-catenin signaling is not due to FLT3 inhibition. We then examined whether the first-generation FLT3 inhibitors could inhibit Wnt/β-catenin signaling. […].\nSTF3a cells (8 × 10^3) were seeded overnight in 96-well plates (triplicate wells per treatment). Cells were treated with 0.1% DMSO or tested compounds for 24 h with Luciferase assay system (Promega) performed according to the manufacturer’s instructions. […] The reporter activity was expressed as relative values compared with vehicle control.\nFigure 3 Effects of SKLB-677 on Wnt/β-catenin signaling. […]. All data points are means of triplicates ± SD. ns, not statistically significant, **P < 0.01, ***P < 0.005 among groups. […]. (c) STF3a cells were incubated with various concentrations of SKLB-677 for 24 h.The cell lysates were detected using the antibodies against S33/37/T41 Non-phospho β-catenin (active β-catenin), and total β-catenin (β-catenin). (d) STF3a cells were treated with indicated concentrations of SKLB-677 for 24 h. MYC, CCND1, and NKD1 mRNA expressions were determined through real-time qPCR analysis. All samples were normalized to the level of GAPDH (mean ± SEM from triplicate reactions). *P < 0.05, **P < 0.01, ***P < 0.005. (e) Representative images of zebrafish embryos at 24hpf with tail formation after incubation with various concentrations of SKLB-677 for 20 h. (f) Zebrafish embryos were injected with wnt8.1 mRNA (30 pg) or vehicle mRNA (phaenotype control). […]. Results shown in the histogram are expressed as the percentage of embryos in each phenotypic class after the treatment (n > 70). Class 1: wild-type, class 2: posteriorized, resulting in the loss of the eyes, and class 3: more severely posteriorized, as evidenced by head truncation."}, "MV4-11": {"test_system": "MV4-11", "test": "MTT cell viability assay", "conditions": "Homo sapiens, MV4-11, 72 h"}, "FLT1": {"molecular_target": "T1, FLT1 (Homo sapiens, UniProt P17948)", "T1 construct": "purchased DiscoveRx KINOMEscan (Ambit Biosciences)", "T1 sequence (P17948 27-1338)": "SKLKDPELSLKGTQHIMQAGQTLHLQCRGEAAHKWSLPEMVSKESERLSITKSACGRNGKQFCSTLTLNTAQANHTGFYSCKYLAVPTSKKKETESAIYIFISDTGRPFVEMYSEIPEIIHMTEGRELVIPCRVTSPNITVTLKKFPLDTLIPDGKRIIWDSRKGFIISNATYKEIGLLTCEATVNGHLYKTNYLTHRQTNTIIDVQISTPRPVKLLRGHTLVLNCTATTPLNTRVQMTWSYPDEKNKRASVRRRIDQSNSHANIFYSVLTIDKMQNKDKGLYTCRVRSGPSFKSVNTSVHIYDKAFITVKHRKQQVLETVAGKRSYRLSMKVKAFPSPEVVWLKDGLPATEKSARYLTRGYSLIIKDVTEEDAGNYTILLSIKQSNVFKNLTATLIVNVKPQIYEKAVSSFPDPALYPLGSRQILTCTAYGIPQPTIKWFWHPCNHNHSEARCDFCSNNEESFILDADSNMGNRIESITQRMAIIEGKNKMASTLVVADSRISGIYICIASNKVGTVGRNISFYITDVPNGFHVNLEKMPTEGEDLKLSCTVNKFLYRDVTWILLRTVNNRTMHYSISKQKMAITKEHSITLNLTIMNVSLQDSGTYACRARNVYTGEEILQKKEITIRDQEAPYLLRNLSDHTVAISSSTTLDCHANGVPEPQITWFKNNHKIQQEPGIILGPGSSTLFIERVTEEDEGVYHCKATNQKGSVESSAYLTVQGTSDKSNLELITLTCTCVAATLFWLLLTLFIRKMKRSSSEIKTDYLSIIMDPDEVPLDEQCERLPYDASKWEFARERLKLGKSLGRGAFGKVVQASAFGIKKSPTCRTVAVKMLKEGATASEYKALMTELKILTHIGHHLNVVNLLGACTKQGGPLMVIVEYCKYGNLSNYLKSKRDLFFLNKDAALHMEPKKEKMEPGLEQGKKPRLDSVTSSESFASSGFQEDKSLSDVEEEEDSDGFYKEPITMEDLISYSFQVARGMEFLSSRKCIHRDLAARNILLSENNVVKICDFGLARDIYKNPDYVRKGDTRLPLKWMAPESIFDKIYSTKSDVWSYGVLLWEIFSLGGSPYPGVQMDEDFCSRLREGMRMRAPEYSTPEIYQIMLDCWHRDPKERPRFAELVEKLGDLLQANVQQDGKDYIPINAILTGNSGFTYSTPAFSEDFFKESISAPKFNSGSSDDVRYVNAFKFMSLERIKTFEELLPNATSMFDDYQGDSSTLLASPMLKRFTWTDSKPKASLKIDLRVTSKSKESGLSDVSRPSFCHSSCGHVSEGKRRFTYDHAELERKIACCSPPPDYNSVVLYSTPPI", "test": "KINOMEscan panel screen", "assay_type": "binding", "conditions": "read-out: Percent Control(%)"}, "EGFR(G719C)": {"molecular_target": "T2, EGFR(G719C) (Homo sapiens, UniProt P00533, G719C)", "T2 construct": "purchased DiscoveRx KINOMEscan (Ambit Biosciences)", "T2 sequence (P00533 25-1210 G719C)": "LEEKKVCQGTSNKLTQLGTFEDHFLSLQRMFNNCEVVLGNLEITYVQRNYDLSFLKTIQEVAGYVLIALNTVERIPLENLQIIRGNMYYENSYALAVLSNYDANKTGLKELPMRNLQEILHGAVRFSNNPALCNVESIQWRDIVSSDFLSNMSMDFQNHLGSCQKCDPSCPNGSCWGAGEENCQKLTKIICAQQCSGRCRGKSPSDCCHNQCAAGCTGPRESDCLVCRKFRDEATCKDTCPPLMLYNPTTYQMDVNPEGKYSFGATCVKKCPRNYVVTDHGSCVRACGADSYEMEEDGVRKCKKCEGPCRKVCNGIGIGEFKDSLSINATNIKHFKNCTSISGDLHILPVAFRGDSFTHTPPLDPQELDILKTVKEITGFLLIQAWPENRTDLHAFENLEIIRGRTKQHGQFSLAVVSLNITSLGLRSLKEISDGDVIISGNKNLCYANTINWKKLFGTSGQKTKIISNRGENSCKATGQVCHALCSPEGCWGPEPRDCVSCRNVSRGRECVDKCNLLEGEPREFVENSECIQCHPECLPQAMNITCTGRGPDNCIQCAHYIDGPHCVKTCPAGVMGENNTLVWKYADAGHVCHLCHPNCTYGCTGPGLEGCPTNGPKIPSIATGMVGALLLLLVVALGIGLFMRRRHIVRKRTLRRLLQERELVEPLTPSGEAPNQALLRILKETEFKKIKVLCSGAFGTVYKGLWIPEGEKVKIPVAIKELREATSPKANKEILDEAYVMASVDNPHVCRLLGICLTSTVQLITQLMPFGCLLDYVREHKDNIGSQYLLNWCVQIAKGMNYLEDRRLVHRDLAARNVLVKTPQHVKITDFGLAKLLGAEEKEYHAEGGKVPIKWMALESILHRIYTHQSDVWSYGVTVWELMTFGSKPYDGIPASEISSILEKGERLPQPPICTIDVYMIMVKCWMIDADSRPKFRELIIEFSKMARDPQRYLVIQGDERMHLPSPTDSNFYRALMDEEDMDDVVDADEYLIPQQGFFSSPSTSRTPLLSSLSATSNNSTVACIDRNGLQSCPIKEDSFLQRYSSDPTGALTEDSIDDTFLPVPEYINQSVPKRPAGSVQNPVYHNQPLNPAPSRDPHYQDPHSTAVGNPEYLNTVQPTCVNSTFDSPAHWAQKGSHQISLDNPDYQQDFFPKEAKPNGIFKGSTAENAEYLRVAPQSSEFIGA", "test": "KINOMEscan panel screen", "assay_type": "binding", "conditions": "read-out: Percent Control(%)"}, "PIK3C2G": {"molecular_target": "T3, PIK3C2G (Homo sapiens, UniProt O75747)", "T3 construct": "purchased DiscoveRx KINOMEscan (Ambit Biosciences)", "test": "KINOMEscan panel screen", "assay_type": "binding", "conditions": "read-out: Percent Control(%)"}, "LZK": {"molecular_target": "T4, LZK (Homo sapiens, UniProt O43283)", "T4 construct": "purchased DiscoveRx KINOMEscan (Ambit Biosciences)", "test": "KINOMEscan panel screen", "assay_type": "binding", "conditions": "read-out: Percent Control(%)"}, "PFTAIRE2": {"molecular_target": "T5, PFTAIRE2 (Homo sapiens, UniProt Q96Q40)", "T5 construct": "purchased DiscoveRx KINOMEscan (Ambit Biosciences)", "test": "KINOMEscan panel screen", "assay_type": "binding", "conditions": "read-out: Percent Control(%)"}, "CDK3": {"molecular_target": "T6, CDK3 (Homo sapiens, UniProt Q00526)", "T6 construct": "purchased DiscoveRx KINOMEscan (Ambit Biosciences)", "test": "KINOMEscan panel screen", "assay_type": "binding", "conditions": "read-out: Percent Control(%)"}, "PIK3CA(C420R)": {"molecular_target": "T7, PIK3CA(C420R) (Homo sapiens, UniProt P42336, C420R)", "T7 construct": "purchased DiscoveRx KINOMEscan (Ambit Biosciences)", "test": "KINOMEscan panel screen", "assay_type": "binding", "conditions": "read-out: Percent Control(%)"}, "CSF1R-autoinhibited": {"molecular_target": "T8, CSF1R-autoinhibited (Homo sapiens, UniProt P07333)", "T8 construct": "purchased DiscoveRx KINOMEscan (Ambit Biosciences)", "T8 sequence (P07333 539-972 limits assumed)": "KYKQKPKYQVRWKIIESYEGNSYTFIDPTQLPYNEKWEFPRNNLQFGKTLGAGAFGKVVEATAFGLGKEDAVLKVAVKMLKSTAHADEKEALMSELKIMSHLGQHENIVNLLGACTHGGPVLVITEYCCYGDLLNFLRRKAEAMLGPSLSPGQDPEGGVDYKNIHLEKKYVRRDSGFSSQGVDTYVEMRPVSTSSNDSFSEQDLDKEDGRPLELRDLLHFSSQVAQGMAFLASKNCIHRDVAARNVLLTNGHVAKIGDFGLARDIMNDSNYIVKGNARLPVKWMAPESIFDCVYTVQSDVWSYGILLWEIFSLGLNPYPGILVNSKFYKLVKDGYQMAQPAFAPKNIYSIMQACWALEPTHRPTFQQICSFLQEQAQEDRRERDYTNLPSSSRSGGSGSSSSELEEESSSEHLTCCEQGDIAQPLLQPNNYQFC", "test": "KINOMEscan panel screen", "assay_type": "binding", "conditions": "read-out: Percent Control(%)"}, "CAMK2G": {"molecular_target": "T9, CAMK2G (Homo sapiens, UniProt Q13555)", "T9 construct": "purchased DiscoveRx KINOMEscan (Ambit Biosciences)", "test": "KINOMEscan panel screen", "assay_type": "binding", "conditions": "read-out: Percent Control(%)"}, "MEK1": {"molecular_target": "T10, MEK1 (Homo sapiens, UniProt Q02750)", "T10 construct": "purchased DiscoveRx KINOMEscan (Ambit Biosciences)", "test": "KINOMEscan panel screen", "assay_type": "binding", "conditions": "read-out: Percent Control(%)"}, "ACVR2A": {"molecular_target": "T11, ACVR2A (Homo sapiens, UniProt P27037)", "T11 construct": "purchased DiscoveRx KINOMEscan (Ambit Biosciences)", "test": "KINOMEscan panel screen", "assay_type": "binding", "conditions": "read-out: Percent Control(%)"}, "BMPR1A": {"molecular_target": "T12, BMPR1A (Homo sapiens, UniProt P36894)", "T12 construct": "purchased DiscoveRx KINOMEscan (Ambit Biosciences)", "T12 sequence (P36894 24-532)": "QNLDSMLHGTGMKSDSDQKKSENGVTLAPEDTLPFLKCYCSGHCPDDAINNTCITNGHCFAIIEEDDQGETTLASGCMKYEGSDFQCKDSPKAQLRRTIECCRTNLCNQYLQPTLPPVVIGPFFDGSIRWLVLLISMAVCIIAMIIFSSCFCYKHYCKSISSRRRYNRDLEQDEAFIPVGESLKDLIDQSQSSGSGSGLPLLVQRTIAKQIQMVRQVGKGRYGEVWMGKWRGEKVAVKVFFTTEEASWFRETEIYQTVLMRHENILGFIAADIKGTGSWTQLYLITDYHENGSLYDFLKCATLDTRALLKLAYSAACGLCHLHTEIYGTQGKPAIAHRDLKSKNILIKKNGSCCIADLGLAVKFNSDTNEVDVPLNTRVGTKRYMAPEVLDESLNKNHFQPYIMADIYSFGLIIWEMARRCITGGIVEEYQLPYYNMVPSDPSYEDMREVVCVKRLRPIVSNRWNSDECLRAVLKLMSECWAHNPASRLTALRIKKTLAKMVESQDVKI", "test": "KINOMEscan panel screen", "assay_type": "binding", "conditions": "read-out: Percent Control(%)"}, "KIT(V559D,V654A)": {"molecular_target": "T13, KIT(V559D,V654A) (Homo sapiens, UniProt P10721, V559D/V654A)", "T13 construct": "purchased DiscoveRx KINOMEscan (Ambit Biosciences)", "test": "KINOMEscan panel screen", "assay_type": "binding", "conditions": "read-out: Percent Control(%)"}, "PAK4": {"molecular_target": "T14, PAK4 (Homo sapiens, UniProt O96013)", "T14 construct": "DNA tag (qPCR read-out); purchased Ambit Biosciences (KINOMEscan service)", "T14 sequence (O96013 whole entry)": "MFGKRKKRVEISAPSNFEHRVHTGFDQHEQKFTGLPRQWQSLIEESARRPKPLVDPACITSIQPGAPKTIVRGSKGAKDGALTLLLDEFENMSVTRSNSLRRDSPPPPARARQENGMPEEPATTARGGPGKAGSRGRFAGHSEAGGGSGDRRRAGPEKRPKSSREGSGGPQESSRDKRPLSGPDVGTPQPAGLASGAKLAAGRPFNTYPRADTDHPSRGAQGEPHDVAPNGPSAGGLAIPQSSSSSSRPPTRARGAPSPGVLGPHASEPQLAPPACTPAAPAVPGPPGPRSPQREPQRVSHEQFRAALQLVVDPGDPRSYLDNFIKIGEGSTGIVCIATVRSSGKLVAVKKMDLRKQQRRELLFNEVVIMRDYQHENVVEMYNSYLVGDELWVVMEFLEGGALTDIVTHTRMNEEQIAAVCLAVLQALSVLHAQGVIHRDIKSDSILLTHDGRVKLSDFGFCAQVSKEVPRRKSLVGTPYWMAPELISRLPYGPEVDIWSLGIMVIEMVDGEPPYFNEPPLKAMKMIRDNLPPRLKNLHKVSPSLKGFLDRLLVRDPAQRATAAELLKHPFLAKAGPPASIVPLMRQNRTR", "test": "KINOMEscan panel screen", "assay_type": "binding", "conditions": "read-out: Percent Control(%)"}, "DCAMKL3": {"molecular_target": "T15, DCAMKL3 (Homo sapiens, UniProt Q9C098)", "T15 construct": "purchased DiscoveRx KINOMEscan (Ambit Biosciences)", "T15 sequence (Q9C098 whole entry)": "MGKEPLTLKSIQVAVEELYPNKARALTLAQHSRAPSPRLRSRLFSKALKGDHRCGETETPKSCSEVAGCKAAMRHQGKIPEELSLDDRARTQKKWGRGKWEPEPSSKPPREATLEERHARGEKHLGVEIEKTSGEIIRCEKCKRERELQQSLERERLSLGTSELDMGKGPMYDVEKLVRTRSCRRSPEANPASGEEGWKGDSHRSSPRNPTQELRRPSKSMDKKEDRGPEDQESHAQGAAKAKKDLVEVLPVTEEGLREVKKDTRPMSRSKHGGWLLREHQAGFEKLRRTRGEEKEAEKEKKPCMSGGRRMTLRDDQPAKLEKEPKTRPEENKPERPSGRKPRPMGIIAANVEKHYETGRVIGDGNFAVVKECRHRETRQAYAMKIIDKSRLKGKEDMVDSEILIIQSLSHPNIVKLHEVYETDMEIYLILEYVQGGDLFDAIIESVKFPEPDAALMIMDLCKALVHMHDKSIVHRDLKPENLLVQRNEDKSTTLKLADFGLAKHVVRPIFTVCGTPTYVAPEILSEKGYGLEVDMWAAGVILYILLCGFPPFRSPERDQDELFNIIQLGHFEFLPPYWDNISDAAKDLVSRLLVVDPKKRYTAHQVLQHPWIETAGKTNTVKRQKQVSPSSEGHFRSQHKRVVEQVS", "test": "KINOMEscan panel screen", "assay_type": "binding", "conditions": "read-out: Percent Control(%)"}},
  "note": "Where two headings read alike, the source gives them in different places.",
  "data": [
    {"smiles": "O=C(Nc1ccc(Oc2ncnc3[nH]ncc23)cc1)Nc1ccc(Cl)c(C(F)(F)F)c1", "note": "[Compound 1, 1-(4-(1H-pyrazolo[3,4-d]pyrimidin-4-yloxy)phenyl)-3-(4-chloro-3-(trifluoromethyl)phenyl)urea]", "values": [
      {"measurement": "IC50", "setting": "SMMC7721", "value": "> 10", "unit": "µM"},
      {"measurement": "IC50", "setting": "U266", "value": "> 10", "unit": "µM"},
      {"measurement": "IC50", "setting": "Karpas-299", "value": "> 10", "unit": "µM"},
      {"measurement": "IC50", "setting": "MCF-7", "value": "> 10", "unit": "µM"},
      {"measurement": "IC50", "setting": "HL-60", "value": "> 10", "unit": "µM"},
      {"measurement": "IC50", "setting": "Jurkat", "value": 8.72, "unit": "µM"},
      {"measurement": "IC50", "setting": "Raji", "value": "> 10", "unit": "µM"},
      {"measurement": "IC50", "setting": "HeLa", "value": "> 10", "unit": "µM"},
      {"measurement": "IC50", "setting": "A549", "value": "> 10", "unit": "µM"},
      {"measurement": "IC50", "setting": "BEL7402", "value": "> 10", "unit": "µM"},
      {"measurement": "attenuation of Wnt/β-catenin signaling", "setting": "[1]; STF3a cells", "value": "very weak activity"},
      {"measurement": "IC50", "setting": "MV4-11", "value": 4, "unit": "nM"}
    ]},
    {"smiles": "CC(C)(C)c1cc(NC(=O)Nc2ccc(Oc3ncnc4[nH]ncc34)c(F)c2)no1", "note": "[SKLB-677, 1-(4-(1H-pyrazolo[3,4-d]pyrimidin-4-yloxy)-3-fluorophenyl)-3-(5-tert-butylisoxazol-3-yl)urea]", "values": [
      {"measurement": "remaining binding at 10 µM", "setting": "FLT1", "value": 0.05, "unit": "%"},
      {"measurement": "remaining binding at 10 µM", "setting": "EGFR(G719C)", "value": 37, "unit": "%"},
      {"measurement": "IC50", "setting": "SMMC7721", "value": "> 10", "unit": "µM"},
      {"measurement": "remaining binding at 10 µM", "setting": "PIK3C2G", "value": 100, "unit": "%"},
      {"measurement": "IC50", "setting": "U266", "value": "> 10", "unit": "µM"},
      {"measurement": "IC50", "setting": "Karpas-299", "value": 7, "unit": "µM"},
      {"measurement": "remaining binding at 10 µM", "setting": "LZK", "value": 93, "unit": "%"},
      {"measurement": "IC50", "setting": "MCF-7", "value": "> 10", "unit": "µM"},
      {"measurement": "remaining binding at 10 µM", "setting": "PFTAIRE2", "value": 0.85, "unit": "%"},
      {"measurement": "remaining binding at 10 µM", "setting": "CDK3", "value": 0.2, "unit": "%"},
      {"measurement": "IC50", "setting": "HL-60", "value": 8.9, "unit": "µM"},
      {"measurement": "IC50", "setting": "Jurkat", "value": 4.3, "unit": "µM"},
      {"measurement": "IC50", "setting": "Raji", "value": 7.9, "unit": "µM"},
      {"measurement": "remaining binding at 10 µM", "setting": "PIK3CA(C420R)", "value": 96, "unit": "%"},
      {"measurement": "IC50", "setting": "HeLa", "value": 9.45, "unit": "µM"},
      {"measurement": "remaining binding at 10 µM", "setting": "CSF1R-autoinhibited", "value": 0.1, "unit": "%"},
      {"measurement": "IC50", "setting": "A549", "value": 6.4, "unit": "µM"},
      {"measurement": "remaining binding at 10 µM", "setting": "CAMK2G", "value": 66, "unit": "%"},
      {"measurement": "remaining binding at 10 µM", "setting": "MEK1", "value": 7.2, "unit": "%"},
      {"measurement": "IC50", "setting": "BEL7402", "value": "> 10", "unit": "µM"},
      {"measurement": "remaining binding at 10 µM", "setting": "ACVR2A", "value": 100, "unit": "%"},
      {"measurement": "IC50", "setting": "[1]; STF3A, read-out: IC50, inhibition of the Wnt/β-catenin signaling", "value": "< 0.1", "unit": "µM"},
      {"measurement": "remaining binding at 10 µM", "setting": "BMPR1A", "value": 90, "unit": "%"},
      {"measurement": "remaining binding at 10 µM", "setting": "KIT(V559D,V654A)", "value": 1.8, "unit": "%"},
      {"measurement": "remaining binding at 10 µM", "setting": "PAK4", "value": 100, "unit": "%"},
      {"measurement": "remaining binding at 10 µM", "setting": "DCAMKL3", "value": 81, "unit": "%"},
      {"measurement": "IC50", "setting": "MV4-11", "value": 0.079, "unit": "nM"},
      {"measurement": "IC50", "setting": "MV4-11; read-out: Cell viability IC50", "value": 0.079, "unit": "nM"}
    ]}
  ]
}
